Data: PubChem BioAssay (NCI)
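Briefly, cells in 96-well plates were exposed to five compound concentrations for 48 h, and endpoints were estimated by linear interpolation. TGI denotes the concentration required for complete inhibition of growth.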

What was measured:
Experiment in all cases: growth of human tumour cells (NCI), 48 h
A498 renal = system: A498 renal
A549 NSCLC = system: A549 NSCLC
ACHN renal = system: ACHN renal
BT-549 breast = system: BT-549 breast
CAKI-1 renal = system: CAKI-1 renal
CCRF-CEM leukemia = system: CCRF-CEM leukemia
COLO 205 colon = system: COLO 205 colon
DU-145 prostate = system: DU-145 prostate
EKVX NSCLC = system: EKVX NSCLC
HCC-2998 colon = system: HCC-2998 colon
HCT-116 colon = system: HCT-116 colon
HCT-15 colon = system: HCT-15 colon
HL-60(TB) leukemia = system: HL-60(TB) leukemia
HOP-62 NSCLC = system: HOP-62 NSCLC
HOP-92 NSCLC = system: HOP-92 NSCLC
HS 578T breast = system: HS 578T breast
HT29 colon = system: HT29 colon
IGROV1 ovarian = system: IGROV1 ovarian
K-562 leukemia = system: K-562 leukemia
KM12 colon = system: KM12 colon
LOX IMVI melanoma = system: LOX IMVI melanoma
M14 melanoma = system: M14 melanoma
MALME-3M melanoma = system: MALME-3M melanoma
MDA-MB-231 breast = system: MDA-MB-231 breast
MDA-MB-435 = system: MDA-MB-435
MDA-N = system: MDA-N
MOLT-4 leukemia = system: MOLT-4 leukemia
NCI-H226 lung = system: NCI-H226 lung
NCI-H460 lung = system: NCI-H460 lung
NCI/ADR-RES ovarian = system: NCI/ADR-RES ovarian
OVCAR-3 ovarian = system: OVCAR-3 ovarian
OVCAR-4 ovarian = system: OVCAR-4 ovarian
OVCAR-5 ovarian = system: OVCAR-5 ovarian
OVCAR-8 ovarian = system: OVCAR-8 ovarian
PC-3 prostate = system: PC-3 prostate
RPMI-8226 leukemia = system: RPMI-8226 leukemia
RXF 393 renal = system: RXF 393 renal
SF-268 CNS = system: SF-268 CNS
SF-539 CNS = system: SF-539 CNS
SK-MEL-2 melanoma = system: SK-MEL-2 melanoma
SK-MEL-28 melanoma = system: SK-MEL-28 melanoma
SK-OV-3 ovarian = system: SK-OV-3 ovarian
SN12C renal = system: SN12C renal
SNB-19 CNS = system: SNB-19 CNS
SNB-75 CNS = system: SNB-75 CNS
SR leukemia = system: SR leukemia
SW-620 colon = system: SW-620 colon
T-47D breast = system: T-47D breast
TK-10 renal = system: TK-10 renal
U251 CNS = system: U251 CNS
UACC-257 melanoma = system: UACC-257 melanoma
UO-31 renal = system: UO-31 renal
786-0 renal = system: 786-0 renal
MCF7 breast = system: MCF7 breast
NCI-H23 lung = system: NCI-H23 lung
NCI-H522 lung = system: NCI-H522 lung
SF-295 CNS = system: SF-295 CNS
SK-MEL-5 melanoma = system: SK-MEL-5 melanoma
UACC-62 melanoma = system: UACC-62 melanoma

**Q.** For `Nc1nc(N)c2cc(Sc3ccc4nc(N)nc(N)c4c3)ccc2n1`, which TGI (A498 renal) is on record?
**A.** > 100 µM

**Q.** What about the TGI (A549 NSCLC) of the same molecule?
**A.** > 100 µM

**Q.** What about the TGI (ACHN renal) of the same molecule?
**A.** > 100 µM

**Q.** What about the TGI (BT-549 breast) of the same molecule?
**A.** > 100 µM

**Q.** And the TGI (CAKI-1 renal)?
**A.** > 100 µM

**Q.** And the TGI (CCRF-CEM leukemia)?
**A.** 0.0104 µM

**Q.** And the TGI (COLO 205 colon)?
**A.** > 100 µM

**Q.** And the TGI (DU-145 prostate)?
**A.** > 100 µM

**Q.** And the TGI (EKVX NSCLC)?
**A.** > 100 µM

**Q.** And the TGI (HCC-2998 colon)?
**A.** > 100 µM

**Q.** And the TGI (HCT-116 colon)?
**A.** > 100 µM

**Q.** What about the TGI (HCT-15 colon) of the same molecule?
**A.** > 100 µM

**Q.** And the TGI (HL-60(TB) leukemia)?
**A.** > 100 µM

**Q.** What about the TGI (HOP-62 NSCLC) of the same molecule?
**A.** > 100 µM

**Q.** What about the TGI (HOP-92 NSCLC) of the same molecule?
**A.** > 100 µM

**Q.** What about the TGI (HS 578T breast) of the same molecule?
**A.** > 100 µM

**Q.** What about the TGI (HT29 colon) of the same molecule?
**A.** > 100 µM

**Q.** And the TGI (IGROV1 ovarian)?
**A.** > 100 µM

**Q.** What about the TGI (K-562 leukemia) of the same molecule?
**A.** > 100 µM

**Q.** What about the TGI (KM12 colon) of the same molecule?
**A.** > 100 µM

**Q.** And the TGI (LOX IMVI melanoma)?
**A.** > 100 µM

**Q.** What about the TGI (M14 melanoma) of the same molecule?
**A.** > 100 µM

**Q.** What about the TGI (MALME-3M melanoma) of the same molecule?
**A.** > 100 µM

**Q.** What about the TGI (MDA-MB-231 breast) of the same molecule?
**A.** > 100 µM

**Q.** What about the TGI (MDA-MB-435) of the same molecule?
**A.** > 100 µM

**Q.** What about the TGI (MDA-N) of the same molecule?
**A.** > 100 µM

**Q.** And the TGI (MOLT-4 leukemia)?
**A.** > 100 µM

**Q.** And the TGI (NCI-H226 lung)?
**A.** > 100 µM

**Q.** And the TGI (NCI-H460 lung)?
**A.** > 100 µM

**Q.** And the TGI (NCI/ADR-RES ovarian)?
**A.** > 100 µM

**Q.** And the TGI (OVCAR-3 ovarian)?
**A.** > 31.6 µM

**Q.** What about the TGI (OVCAR-4 ovarian) of the same molecule?
**A.** > 100 µM

**Q.** And the TGI (OVCAR-5 ovarian)?
**A.** > 100 µM

**Q.** What about the TGI (OVCAR-8 ovarian) of the same molecule?
**A.** > 100 µM

**Q.** What about the TGI (PC-3 prostate) of the same molecule?
**A.** > 100 µM

**Q.** What about the TGI (RPMI-8226 leukemia) of the same molecule?
**A.** > 100 µM

**Q.** And the TGI (RXF 393 renal)?
**A.** > 100 µM

**Q.** What about the TGI (SF-268 CNS) of the same molecule?
**A.** > 100 µM

**Q.** And the TGI (SF-539 CNS)?
**A.** > 100 µM

**Q.** What about the TGI (SK-MEL-2 melanoma) of the same molecule?
**A.** > 100 µM

**Q.** And the TGI (SK-MEL-28 melanoma)?
**A.** > 100 µM

**Q.** What about the TGI (SK-OV-3 ovarian) of the same molecule?
**A.** > 100 µM

**Q.** What about the TGI (SN12C renal) of the same molecule?
**A.** > 100 µM

**Q.** What about the TGI (SNB-19 CNS) of the same molecule?
**A.** > 100 µM

**Q.** What about the TGI (SNB-75 CNS) of the same molecule?
**A.** > 100 µM

**Q.** What about the TGI (SR leukemia) of the same molecule?
**A.** > 100 µM

**Q.** What about the TGI (SW-620 colon) of the same molecule?
**A.** > 100 µM

**Q.** What about the TGI (T-47D breast) of the same molecule?
**A.** > 100 µM

**Q.** And the TGI (TK-10 renal)?
**A.** > 100 µM

**Q.** And the TGI (U251 CNS)?
**A.** > 100 µM

**Q.** What about the TGI (UACC-257 melanoma) of the same molecule?
**A.** > 100 µM

**Q.** And the TGI (UO-31 renal)?
**A.** > 100 µM

**Q.** How did the TGI (786-0 renal) turn out when `Cc1oc2c(c1C)S(=O)(=O)C(C#N)C(c1ccccc1)N2` (stereo unspecified) was run?
**A.** > 100 µM

**Q.** And the TGI (A498 renal)?
**A.** > 100 µM

**Q.** And the TGI (A549 NSCLC)?
**A.** > 100 µM

**Q.** And the TGI (ACHN renal)?
**A.** > 100 µM

**Q.** What about the TGI (BT-549 breast) of the same molecule?
**A.** > 100 µM

**Q.** What about the TGI (CAKI-1 renal) of the same molecule?
**A.** > 100 µM

**Q.** What about the TGI (CCRF-CEM leukemia) of the same molecule?
**A.** 48.2 µM

**Q.** What about the TGI (COLO 205 colon) of the same molecule?
**A.** > 100 µM

**Q.** And the TGI (DU-145 prostate)?
**A.** > 100 µM

**Q.** And the TGI (EKVX NSCLC)?
**A.** > 100 µM

**Q.** And the TGI (HCC-2998 colon)?
**A.** > 100 µM

**Q.** And the TGI (HCT-116 colon)?
**A.** > 100 µM

**Q.** And the TGI (HCT-15 colon)?
**A.** > 100 µM

**Q.** And the TGI (HOP-62 NSCLC)?
**A.** > 100 µM

**Q.** And the TGI (HOP-92 NSCLC)?
**A.** > 100 µM

**Q.** And the TGI (HS 578T breast)?
**A.** > 100 µM

**Q.** What about the TGI (HT29 colon) of the same molecule?
**A.** > 100 µM

**Q.** What about the TGI (IGROV1 ovarian) of the same molecule?
**A.** > 100 µM

**Q.** And the TGI (KM12 colon)?
**A.** > 100 µM

**Q.** And the TGI (LOX IMVI melanoma)?
**A.** > 100 µM

**Q.** And the TGI (M14 melanoma)?
**A.** > 100 µM

**Q.** What about the TGI (MALME-3M melanoma) of the same molecule?
**A.** > 100 µM

**Q.** What about the TGI (MCF7 breast) of the same molecule?
**A.** > 100 µM

**Q.** And the TGI (MDA-MB-231 breast)?
**A.** > 100 µM

**Q.** What about the TGI (MDA-MB-435) of the same molecule?
**A.** > 100 µM

**Q.** And the TGI (MDA-N)?
**A.** 81.5 µM

**Q.** What about the TGI (MOLT-4 leukemia) of the same molecule?
**A.** 65.5 µM

**Q.** What about the TGI (NCI-H226 lung) of the same molecule?
**A.** > 100 µM

**Q.** What about the TGI (NCI-H23 lung) of the same molecule?
**A.** > 100 µM

**Q.** And the TGI (NCI-H460 lung)?
**A.** > 100 µM

**Q.** What about the TGI (NCI-H522 lung) of the same molecule?
**A.** 40.2 µM

**Q.** What about the TGI (NCI/ADR-RES ovarian) of the same molecule?
**A.** > 100 µM

**Q.** And the TGI (OVCAR-3 ovarian)?
**A.** > 100 µM

**Q.** What about the TGI (OVCAR-4 ovarian) of the same molecule?
**A.** > 100 µM

**Q.** What about the TGI (OVCAR-5 ovarian) of the same molecule?
**A.** > 100 µM

**Q.** What about the TGI (OVCAR-8 ovarian) of the same molecule?
**A.** > 100 µM

**Q.** What about the TGI (PC-3 prostate) of the same molecule?
**A.** > 100 µM

**Q.** And the TGI (SF-268 CNS)?
**A.** > 100 µM

**Q.** What about the TGI (SF-295 CNS) of the same molecule?
**A.** > 100 µM

**Q.** And the TGI (SF-539 CNS)?
**A.** > 100 µM

**Q.** What about the TGI (SK-MEL-2 melanoma) of the same molecule?
**A.** > 100 µM

**Q.** And the TGI (SK-MEL-28 melanoma)?
**A.** > 100 µM

**Q.** And the TGI (SK-MEL-5 melanoma)?
**A.** > 100 µM

**Q.** And the TGI (SK-OV-3 ovarian)?
**A.** > 100 µM

**Q.** And the TGI (SN12C renal)?
**A.** > 100 µM

**Q.** And the TGI (SNB-19 CNS)?
**A.** > 100 µM

**Q.** What about the TGI (SNB-75 CNS) of the same molecule?
**A.** > 100 µM

**Q.** What about the TGI (SW-620 colon) of the same molecule?
**A.** > 100 µM

**Q.** And the TGI (T-47D breast)?
**A.** > 100 µM

**Q.** And the TGI (TK-10 renal)?
**A.** > 100 µM

**Q.** And the TGI (U251 CNS)?
**A.** > 100 µM

**Q.** And the TGI (UACC-257 melanoma)?
**A.** > 100 µM

**Q.** And the TGI (UACC-62 melanoma)?
**A.** > 100 µM

**Q.** What about the TGI (UO-31 renal) of the same molecule?
**A.** > 100 µM
